Results taken from patent US9029373B2, “Kinase inhibitors” (Chiesi Farmaceutici S.p.A., priority 2011, dated 2015).
Structures can show the parent of a compound that is named as a salt.

Tests used:
[1] = biological target: T1, p38alpha (Homo sapiens, UniProt Q16539); experiment: P38alpha enzyme inhibition assay (Alphascreen kinase activity assay); assay type: biochemical; conditions: 100 pM p38alpha, 250 μM ATP, 2 hours pre-incubation at 25° C., ATF-2 fusion protein substrate; read-out: p38α inhibition (IC50 values)
T1 construct: purchased Invitrogen PV3304
Description: P38alpha Enzyme Inhibition Assay.
The inhibitory activity of compounds was determined using an Alphascreen® (Perkin Elmer) based kinase activity assay. Kinase reactions consisted of 25 mM HEPES pH 7.5, 10 mM MgCl2, 100 μM Na3VO4, 2 mM DTT, 0.05 mg/ml Tween 20, 100 pM p38alpha (Invitrogen, PV3304), 1% DMSO and 0.3 μg/ml ATF-2 fusion protein (New England Biolabs, 9224). Compounds were incubated under these conditions for 2 hours, at 25° C., prior to the initiation of the kinase activity by the addition of the 250 μM ATP. Reaction volumes were 20 uL. After 1 hr at 25° C. reactions were stopped by the adding 10 uL of 25 mM HEPES pH 7.5 containing 62.5 mM EDTA, 0.05% Triton X-100, 10% BSA and 0.83 ng/uL anti-phospho-ATF2 antibody (Abeam, ab28812). Detection was performed by measuring luminescence following the addition of Alphascreen Donor beads (Perkin Elmer 6765300) and Protein A Alphascreen Acceptor beads (Perkin Elmer 6760137), both at a final concentration of 20 ug/ml. IC50 values were determined from concentration-response curves.

[2] = system: LPS-stimulated PBMC TNFα release; experiment: LPS-stimulated PBMC TNFα release assay; assay type: cell-based; conditions: human PBMCs, LPS 10 ng/ml, 18 h, TNFα by ELISA, at least three separate experiments, read-out: p38α inhibition (IC50 values), inhibition of TNFα release
Description: LPS-Stimulated PBMC TNFα Release Assay.
Peripheral Blood Mononuclear Cells (PBMCs) were isolated from healthy human volunteer blood using a standard density gradient centrifugation technique. Citrated blood was placed onto Histopaque™ and centrifuged. The PBMCs were removed from the density gradient interface and washed in phosphate buffered saline (PBS). The PBMCs were suspended in RPMI 1640 medium (without serum), dispensed into a 96-well plate and incubated at 37° C. for 3 h in a humidified incubator. After incubation, the medium was replaced (with medium containing 1% foetal bovine serum), and the plate incubated at 37° C., for 1 h, in the presence of test compound or the appropriate vehicle. LPS (10 ng/ml), or an appropriate vehicle control, was then added to the cells, and the plate returned to the incubator for 18 h. Cell-free supernatants were removed and assayed for TNFα levels using an ELISA kit from R&D Systems.
A dose response curve to each test compound was performed and the effect of compound in each experiment was expressed as a percentage inhibition of the control TNFα release. Dose response curves were plotted and compound potency (IC50) was determined. Compounds were tested in at least three separate experiments.

T1 sequence (Q16539 whole entry, the tested form may be a part): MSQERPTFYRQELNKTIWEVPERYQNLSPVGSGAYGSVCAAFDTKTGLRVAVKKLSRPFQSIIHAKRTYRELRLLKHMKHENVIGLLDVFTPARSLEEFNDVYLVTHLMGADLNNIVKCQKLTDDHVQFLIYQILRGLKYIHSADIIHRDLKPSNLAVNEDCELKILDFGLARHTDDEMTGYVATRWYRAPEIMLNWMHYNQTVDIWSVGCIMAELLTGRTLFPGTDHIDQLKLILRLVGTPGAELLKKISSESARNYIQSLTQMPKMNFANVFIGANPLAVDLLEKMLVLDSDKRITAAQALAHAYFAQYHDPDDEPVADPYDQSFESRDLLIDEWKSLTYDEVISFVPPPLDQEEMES

SMILES | IC50 [1] [nM] | IC50 [2] [nM]
CC(C)(C)c1cc(NC(=O)N[C@H]2CC[C@@H](Oc3ccc4nnc(-c5ccccc5Cl)n4c3)c3ccccc32)n(CCO)n1 [Example 31, 1-[5-tert-Butyl-2-(2-hydroxy-ethyl)-2H-pyrazol-3-yl]-3-{(1S,4R)-4-[3-(2-chloro-phenyl)-[1,2,4]triazolo[4,3-a]pyridin-6-yloxy]-1,2,3,4-tetrahydro-naphthalen-1-yl}-urea] | < 10 | < 10
CC(C)c1nnc2ccc(O[C@@H]3CC[C@H](NC(=O)Nc4cc(C(C)(C)C)nn4-c4cccc(OCCO)c4)c4ccccc43)cn12 [Example 4, 1-{5-tert-Butyl-2-[3-(2-hydroxy-ethoxy)-phenyl]-2H-pyrazol-3-yl}-3-[(1S,4R)-4-(3-isopropyl-[1,2,4]triazolo[4,3-a]pyridin-6-yloxy)-1,2,3,4-tetrahydro-naphthalen-1-yl]-urea] | < 10 | < 10
CC(C)c1nnc2ccc(O[C@H]3CC[C@H](NC(=O)Nc4nc(C(C)(C)C)no4)c4ccccc43)cn12 [Example 8, 1-(3-tert-Butyl-[1,2,4]oxadiazol-5-yl)-3-[(1S,4S)-4-(3-isopropyl-[1,2,4]triazolo[4,3-a]pyridin-6-yloxy)-1,2,3,4-tetrahydro-naphthalen-1-yl]-urea] | < 10 | < 10
CC(C)c1nnc2ccc(O[C@H]3CC[C@H](NC(=O)Nc4cc(C(C)(C)C)nn4-c4ccc(C#N)cc4)c4ccccc43)cn12 [Example 14, 1-[5-tert-Butyl-2-(4-cyano-phenyl)-2H-pyrazol-3-yl]-3-[(1S,4S)-4-(3-isopropyl-[1,2,4]triazolo[4,3-a]pyridin-6-yloxy)-1,2,3,4-tetrahydro-naphthalen-1-yl]-urea] | 10 to 100 | < 10
CC(C)c1nnc2ccc(O[C@@H]3CC[C@H](NC(=O)Nc4cc(C(C)(C)C)nn4-c4cccc(SCCO)c4)c4ccccc43)cn12 [Example 3, 1-{5-tert-Butyl-2-[3-(2-hydroxyethylsulfanyl)-phenyl]-2H-pyrazol-3-yl}-3-[(1S,4R)-4-(3-isopropyl-[1,2,4]triazolo[4,3-a]pyridin-6-yloxy)-1,2,3,4-tetrahydro-naphthalen-1-yl]-urea] | < 10 | < 10
Cn1nc(C(C)(C)C)cc1NC(=O)N[C@H]1CC[C@@H](Oc2ccc3nnc(-c4c(Cl)cccc4Cl)n3c2)c2ccccc21 [Example 33, 1-(5-tert-Butyl-2-methyl-2H-pyrazol-3-yl)-3-{(1S,4R)-4-[3-(2,6-dichlorophenyl)-[1,2,4]triazolo[4,3-a]pyridin-6-yloxy]-1,2,3,4-tetrahydronaphthalen-1-yl]-urea] | < 10 | < 10
CC(C)c1nnc2ccc(O[C@@H]3CC[C@H](NC(=O)Nc4cc(C(C)(C)C)nn4-c4cccc(OCCN5CCC(O)CC5)c4)c4ccccc43)cn12 [Example 22, 1-(5-tert-Butyl-2-{3-[2-(4-hydroxy-piperidin-1-yl)-ethoxy]-phenyl}-2H-pyrazol-3-yl)-3-[(1S,4R)-4-(3-isopropyl-[1,2,4]triazolo[4,3-a]pyridin-6-yloxy)-1,2,3,4-tetrahydro-naphthalen-1-yl]-urea formate salt] | < 10 | 10 to 100
CC(C)(C)c1cc(NC(=O)N[C@H]2CC[C@@H](Oc3ccc4nnc(-c5c(Cl)cccc5Cl)n4c3)c3ccccc32)n(CCN2CCCCC2)n1 [Example 29, 1-[5-tert-Butyl-2-(2-piperidin-1-yl-ethyl)-2H-pyrazol-3-yl]-3-{(1S,4R)-4-[3-(2,6-dichloro-phenyl)-[1,2,4]triazolo[4,3-a]pyridin-6-yloxy]-1,2,3,4-tetrahydro-naphthalen-1-yl}-urea formate salt] | < 10 | < 10
COc1ccc(-n2nc(C(C)(C)C)cc2NC(=O)N[C@H]2CC[C@@H](Oc3ccc4nnc(C(C)C)n4c3)c3ccccc32)cc1 [Example 1, 1-(5-tert-Butyl-2-(4-methoxy-phenyl)-2H-pyrazol-3-yl)-3-[(1S,4R)-4-(3-isopropyl-[1,2,4]triazolo[4,3-a]pyridin-6-yloxy)-1,2,3,4-tetrahydro-naphthalen-1-yl]-urea] | < 10 | < 10
CC(C)c1nnc2ccc(O[C@@H]3CC[C@H](NC(=O)Nc4cc(C(C)(C)C)nn4C)c4cc(F)ccc43)cn12 [Example 19, 1-(5-tert-Butyl-2-methyl-2H-pyrazol-3-yl)-3-[(1S,4R)-7-fluoro-4-(3-isopropyl-[1,2,4]triazolo[4,3-a]pyridin-6-yloxy)-1,2,3,4-tetrahydro-naphthalen-1-yl]-urea] | < 10 | 10 to 100

Further lines, with some results ahead:

IC50 [1] [nM] | SMILES | IC50 [2] [nM]
< 10 | CC(C)(C)c1cc(NC(=O)N[C@H]2CC[C@@H](Oc3ccc4nnc(C5CCCCC5)n4c3)c3ccccc32)n(CCN2CCOCC2)n1 [Example 34, 1-[5-tert-Butyl-2-(2-morpholin-4-yl-ethyl)-2H-pyrazol-3-yl]-3-[(1S,4R)-4-(3-cyclohexyl-[1,2,4]triazolo[4,3-a]pyridin-6-yloxy)-1,2,3,4-tetrahydro-naphthalen-1-yl]-urea partial formate salt] | < 10
< 10 | CC(C)c1nnc2ccc(O[C@H]3CC[C@H](NC(=O)Nc4nnc(C(C)(C)C)o4)c4ccccc43)cn12 [Example 5, 1-(5-tert-Butyl-[1,3,4]oxadiazol-2-yl)-3-[(1S,4S)-4-(3-isopropyl-[1,2,4]triazolo[4,3-a]pyridin-6-yloxy)-1,2,3,4-tetrahydro-naphthalen-1-yl]-urea] | 10 to 100
< 10 | CC(C)c1nnc2ccc(O[C@@H]3CC[C@H](NC(=O)Nc4cc(C(C)(C)C)nn4CCN4CCOCC4)c4ccccc43)cn12 [Example 18, 1-[5-tert-Butyl-2-(2-morpholin-4-yl-ethyl)-2H-pyrazol-3-yl]-3-[(1S,4R)-4-(3-isopropyl[1,2,4]triazolo[4,3-a]pyridin-6-yloxy)-1,2,3,4-tetrahydro-naphthalen-1-yl]-urea] | 10 to 100
< 10 | CN(C)CCn1nc(C(C)(C)C)cc1NC(=O)N[C@H]1CC[C@@H](Oc2ccc3nnc(-c4c(Cl)cccc4Cl)n3c2)c2ccccc21 [Example 28, 1-[5-tert-Butyl-2-(2-dimethylamino-ethyl)-2H-pyrazol-3-yl]-3-{(1S,4R)-4-[3-(2,6-dichloro-phenyl)-[1,2,4]triazolo[4,3-a]pyridin-6-yloxy]-1,2,3,4-tetrahydro-naphthalen-1-yl}-urea formate salt] | < 10
< 10 | CC(C)c1nnc2ccc(O[C@H]3CC[C@H](NC(=O)Nc4cc(C(C)(C)C)nn4-c4ccc(CO)cc4)c4ccccc43)cn12 [Example 15, 1-[5-tert-Butyl-2-(4-hydroxymethyl-phenyl)-2H-pyrazol-3-yl]-3-[(1S,4S)-4-(3-isopropyl-[1,2,4]triazolo[4,3-a]pyridin-6-yloxy)-1,2,3,4-tetrahydro-naphthalen-1-yl]-urea] | < 10
< 10 | CC(C)c1nnc2ccc(O[C@@H]3CC[C@H](NC(=O)Nc4cc(C(C)(C)C)nn4-c4ccc(CO)cc4)c4ccccc43)cn12 [Example 11, 1-[5-tert-Butyl-2-(4-hydroxymethyl-phenyl)-2H-pyrazol-3-yl]-3-[(1S,4R)-4-(3-isopropyl-[1,2,4]triazolo[4,3-a]pyridin-6-yloxy)-1,2,3,4-tetrahydro-naphthalen-1-yl]-urea] | < 10
< 10 | CC(C)(C)c1cc(NC(=O)N[C@H]2CC[C@@H](Oc3ccc4nnc(-c5ccccc5Cl)n4c3)c3ccccc32)n(CCN2CCOCC2)n1 [Example 32, 1-[5-tert-Butyl-2-(2-morpholin-4-yl-ethyl)-2H-pyrazol-3-yl]-3-{(1S,4R)-4-[3-(2-chloro-phenyl)-[1,2,4]triazolo[4,3-a]pyridin-6-yloxy]-1,2,3,4-tetrahydro-naphthalen-1-yl}-urea formate salt] | < 10
< 10 | CC(C)c1nnc2ccc(O[C@H]3CC[C@H](NC(=O)Nc4cnn(C(C)(C)C)c4)c4ccccc43)cn12 [Example 9, 1-(1-tert-Butyl-1H-pyrazol-4-yl)-3-[(1S,4S)-4-(3-isopropyl-[1,2,4]triazolo[4,3-a]pyridin-6-yloxy)-1,2,3,4-tetrahydro-naphthalen-1-yl]-urea] | < 10
